What all share (experiment): Kinobeads competition binding, L-363 cell lysate
Holding throughout (conditions): 10 μM free compound, L-363 lysate

In one assay the target is LYN (Homo sapiens, UniProt P07948). On the set-up: capturing and identification of kinases from L-363 cell lysate; endogenous in cells; host or cells: L-363 (DSMZ ACC49), treated with MG132 before harvest. The method, then: (§1) To one aliquot of cell lysate 10 μM of the free compound (FIG. 3, CZC31326) was added and allowed to bind to proteins in the lysate. Then the affinity matrix with the immobilized compound was added to capture proteins that were not interacting with the previously added free compound. Beads were separated from the lysate and bead bound proteins were eluted in SDS sample buffer and subsequently separated by SDS-Polyacrylamide gel electrophoresis (FIG. 8). Suitable gel bands were cut out and subjected to in-gel proteolytic digestion with trypsin. The second lysate aliquot was processed identically, however no free compound was added (DMSO solvent control). Peptides originating from samples 1 and 2 were labeled with iTRAQ reagents (iTRAQ 114 and iTRAQ 117) and the combined samples were analyzed with a nano-flow liquid chromatography system coupled online to a tandem mass spectrometer (LC-MS/MS) experiment followed by iTRAQ reporter ion quantification in the MS/MS spectra as described in Example 2.
(§2) For this experiment the human plasma cell leukaemia line L-363 was used (German Collection of Microorganisms and Cell Cultures, DSMZ number ACC49, Braunschweig, Germany). Cells were treated for three hours with 20 μM of the proteasome inhibitor MG132 (Z-Leu-Leu-Leu-al, Sigma C2211) prior to cell harvesting.

A further assay has as its target MAP2K6 (Homo sapiens, UniProt P52564). Also on record: capturing and identification of kinases from L-363 cell lysate; endogenous in cells; host or cells: L-363 (DSMZ ACC49), treated with MG132 before harvest. The method, then: as §1, §2
The next assay deals with RIPK2 (Homo sapiens, UniProt O43353). Also on record: capturing and identification of kinases from L-363 cell lysate; endogenous in cells; host or cells: L-363 (DSMZ ACC49), treated with MG132 before harvest. The method, then:
as §1, §2

The target of a further assay is BCR (Homo sapiens, UniProt P11274). Also on record: capturing and identification of kinases from L-363 cell lysate; endogenous in cells; host or cells: L-363 (DSMZ ACC49), treated with MG132 before harvest. The method, then:
as §1, §2

The next assay addresses T1, PKD3 (Homo sapiens, UniProt O94806).
T1 sequence (O94806 1-890): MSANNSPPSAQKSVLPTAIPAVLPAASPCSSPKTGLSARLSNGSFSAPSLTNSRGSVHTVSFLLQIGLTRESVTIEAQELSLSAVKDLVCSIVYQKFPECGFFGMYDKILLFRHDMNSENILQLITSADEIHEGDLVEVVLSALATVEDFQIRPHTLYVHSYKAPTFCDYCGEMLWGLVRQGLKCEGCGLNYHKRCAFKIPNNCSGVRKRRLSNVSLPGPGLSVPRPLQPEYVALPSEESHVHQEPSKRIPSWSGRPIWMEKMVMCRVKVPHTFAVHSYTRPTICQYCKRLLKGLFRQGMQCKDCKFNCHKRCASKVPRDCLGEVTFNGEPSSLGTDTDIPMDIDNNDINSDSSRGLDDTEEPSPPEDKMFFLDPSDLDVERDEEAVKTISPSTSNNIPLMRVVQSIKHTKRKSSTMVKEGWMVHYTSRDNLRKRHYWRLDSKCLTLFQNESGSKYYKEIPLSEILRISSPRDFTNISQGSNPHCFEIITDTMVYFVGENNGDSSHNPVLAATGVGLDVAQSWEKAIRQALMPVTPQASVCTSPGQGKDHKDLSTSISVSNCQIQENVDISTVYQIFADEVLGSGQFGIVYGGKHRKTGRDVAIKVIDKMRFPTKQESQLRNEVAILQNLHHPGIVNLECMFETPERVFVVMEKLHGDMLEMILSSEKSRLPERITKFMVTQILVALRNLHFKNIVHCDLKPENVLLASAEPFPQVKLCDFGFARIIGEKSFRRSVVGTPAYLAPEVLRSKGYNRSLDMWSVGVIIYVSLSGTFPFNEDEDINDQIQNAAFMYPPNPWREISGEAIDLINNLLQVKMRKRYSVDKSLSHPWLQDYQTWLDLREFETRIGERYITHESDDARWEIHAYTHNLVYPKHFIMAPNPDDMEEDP
On the set-up: endogenous in cells; host or cells: L-363 (treated with MG132 for three hours before harvest). How it is done:
as §1, §2

The target of the next assay is T2, PIP5K2A (Homo sapiens, UniProt P48426).
T2 sequence (P48426 1-406): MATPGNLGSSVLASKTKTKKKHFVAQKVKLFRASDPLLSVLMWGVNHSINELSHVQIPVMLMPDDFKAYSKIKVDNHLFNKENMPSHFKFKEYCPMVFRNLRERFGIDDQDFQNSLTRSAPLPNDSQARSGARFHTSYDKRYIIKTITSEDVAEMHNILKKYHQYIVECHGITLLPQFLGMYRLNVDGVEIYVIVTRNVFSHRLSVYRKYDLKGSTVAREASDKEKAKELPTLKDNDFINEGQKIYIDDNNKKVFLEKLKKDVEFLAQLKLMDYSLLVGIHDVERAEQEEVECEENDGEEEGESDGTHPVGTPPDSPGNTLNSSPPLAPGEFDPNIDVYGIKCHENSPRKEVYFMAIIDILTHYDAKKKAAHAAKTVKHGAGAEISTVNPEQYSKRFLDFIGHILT
Also on record: endogenous in cells; host or cells: L-363 (treated with MG132 for three hours before harvest). The method, then:
as §1, §2

Chain of LYN (P07948 whole entry): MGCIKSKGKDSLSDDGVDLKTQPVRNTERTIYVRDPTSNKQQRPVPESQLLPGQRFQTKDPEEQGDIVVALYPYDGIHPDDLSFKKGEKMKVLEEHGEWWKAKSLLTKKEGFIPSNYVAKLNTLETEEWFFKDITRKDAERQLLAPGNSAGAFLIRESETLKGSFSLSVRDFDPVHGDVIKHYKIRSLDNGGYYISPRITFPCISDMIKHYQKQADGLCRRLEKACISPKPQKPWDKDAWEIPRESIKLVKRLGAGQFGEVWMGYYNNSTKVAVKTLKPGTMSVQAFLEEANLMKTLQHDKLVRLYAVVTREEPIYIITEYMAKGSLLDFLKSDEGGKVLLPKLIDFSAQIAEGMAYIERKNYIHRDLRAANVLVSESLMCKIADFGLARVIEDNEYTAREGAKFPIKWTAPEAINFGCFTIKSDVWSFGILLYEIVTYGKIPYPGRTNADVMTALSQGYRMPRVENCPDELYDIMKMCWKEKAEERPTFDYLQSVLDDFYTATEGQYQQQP
Chain of BCR (P11274 whole entry): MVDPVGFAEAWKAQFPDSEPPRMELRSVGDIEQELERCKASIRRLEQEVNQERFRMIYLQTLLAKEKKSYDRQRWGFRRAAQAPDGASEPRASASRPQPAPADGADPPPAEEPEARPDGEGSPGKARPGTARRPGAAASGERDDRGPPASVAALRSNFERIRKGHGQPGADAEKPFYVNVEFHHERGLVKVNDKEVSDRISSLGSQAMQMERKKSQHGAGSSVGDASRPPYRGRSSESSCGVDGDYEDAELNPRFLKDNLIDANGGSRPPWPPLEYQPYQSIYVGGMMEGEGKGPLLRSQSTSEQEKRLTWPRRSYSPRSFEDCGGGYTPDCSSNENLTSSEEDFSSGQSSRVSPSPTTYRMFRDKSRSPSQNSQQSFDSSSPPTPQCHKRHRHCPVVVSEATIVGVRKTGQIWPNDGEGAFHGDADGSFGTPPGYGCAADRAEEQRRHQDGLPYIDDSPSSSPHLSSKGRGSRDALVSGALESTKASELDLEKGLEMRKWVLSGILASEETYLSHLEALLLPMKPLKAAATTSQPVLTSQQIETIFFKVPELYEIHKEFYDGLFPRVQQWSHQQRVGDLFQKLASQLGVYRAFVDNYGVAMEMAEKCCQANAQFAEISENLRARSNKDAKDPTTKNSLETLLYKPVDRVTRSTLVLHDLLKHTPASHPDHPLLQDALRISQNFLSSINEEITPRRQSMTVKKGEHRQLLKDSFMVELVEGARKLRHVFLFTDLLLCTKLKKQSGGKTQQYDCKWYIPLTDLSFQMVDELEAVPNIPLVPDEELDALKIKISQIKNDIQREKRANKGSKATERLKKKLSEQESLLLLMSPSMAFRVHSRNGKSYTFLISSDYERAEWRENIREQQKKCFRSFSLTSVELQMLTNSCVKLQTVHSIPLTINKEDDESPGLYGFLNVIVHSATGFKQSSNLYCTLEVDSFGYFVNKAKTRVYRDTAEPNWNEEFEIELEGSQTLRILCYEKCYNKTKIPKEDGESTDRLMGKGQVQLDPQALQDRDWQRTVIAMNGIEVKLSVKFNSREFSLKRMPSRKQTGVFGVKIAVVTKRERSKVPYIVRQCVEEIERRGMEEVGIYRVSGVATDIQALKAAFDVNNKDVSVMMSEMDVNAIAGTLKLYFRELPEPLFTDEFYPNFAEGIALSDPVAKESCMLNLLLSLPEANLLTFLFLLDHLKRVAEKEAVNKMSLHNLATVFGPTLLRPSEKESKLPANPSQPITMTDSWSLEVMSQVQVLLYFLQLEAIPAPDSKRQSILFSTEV
Chain of RIPK2 (O43353 whole entry): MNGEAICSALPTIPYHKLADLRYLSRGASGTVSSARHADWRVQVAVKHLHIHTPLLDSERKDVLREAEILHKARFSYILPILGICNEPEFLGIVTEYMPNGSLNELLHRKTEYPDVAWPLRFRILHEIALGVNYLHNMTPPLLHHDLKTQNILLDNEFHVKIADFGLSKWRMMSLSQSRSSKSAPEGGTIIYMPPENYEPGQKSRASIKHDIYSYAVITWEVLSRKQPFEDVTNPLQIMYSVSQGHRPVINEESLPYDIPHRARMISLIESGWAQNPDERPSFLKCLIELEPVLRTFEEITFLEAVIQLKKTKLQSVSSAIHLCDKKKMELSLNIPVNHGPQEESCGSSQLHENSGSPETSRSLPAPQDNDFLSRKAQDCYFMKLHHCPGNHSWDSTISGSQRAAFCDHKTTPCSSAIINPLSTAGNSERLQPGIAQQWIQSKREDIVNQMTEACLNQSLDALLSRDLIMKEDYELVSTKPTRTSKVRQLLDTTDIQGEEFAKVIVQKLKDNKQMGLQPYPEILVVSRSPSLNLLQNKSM
Chain of MAP2K6 (P52564 whole entry): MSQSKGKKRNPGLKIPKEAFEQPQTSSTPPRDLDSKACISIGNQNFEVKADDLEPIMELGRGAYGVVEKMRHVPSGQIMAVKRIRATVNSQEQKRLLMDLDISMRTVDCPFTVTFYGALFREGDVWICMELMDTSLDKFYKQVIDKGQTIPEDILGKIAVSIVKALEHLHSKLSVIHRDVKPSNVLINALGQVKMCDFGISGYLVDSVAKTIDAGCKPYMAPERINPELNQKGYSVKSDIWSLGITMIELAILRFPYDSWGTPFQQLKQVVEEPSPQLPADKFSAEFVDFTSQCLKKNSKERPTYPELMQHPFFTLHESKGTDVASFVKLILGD

With `CS(=O)(=O)Nc1ccccc1Nc1nc(Nc2cccc(OCCN)c2)ncc1Cl` [CZC31326, N-(2-(2-(3-(2-aminoethoxy)phenylamino)-5-chloropyrimidin-4-ylamino)phenyl)methanesulfonamide], the inhibition (as a rule, the share of the control response that was lost under treatment) at 10 µM on LYN is 94.5%; on MAP2K6, 94.2%; at RIPK2 it was 95.5%; at BCR it was 93.6%; on PKD3, 98.1%; on PIP5K2A, 96.4%.

Values taken from US20120270237A9, “METHODS FOR THE IDENTIFICATION OF KINASE INTERACTING MOLECULES AND FOR THE PURIFICATION OF KINASE PROTEINS” (Cellzone AG, priority 2009, published 2012).
